“Also recorded” adds a separate entry of the source. Read-outs that look alike come from different tables or passages of the source.
Key:
[1] = First-in-human study: plasma pharmacokinetics in healthy subjects; assay type: in vivo; details: for median lag time: fed; for half-life: read-out: mean t1/2 (converted); for Tmax: read-out: median tmax; for CL renal: urine, read-out: Renal clearance (converted); for dose proportionality of exposure: single doses
Excerpt: The study design comprised of 4 parts: single ascending dose (SAD; Part A), relative bioavailability of tablet formulations (Part B), multiple ascending dose (MAD; Part C), and relative bioavailability and food effect (Part D) (FIG. 2; RF=Reference Formulation (crystalline suspension); T2=Test Formulation 2 (crystalline tablet); T3=Test Formulation 3 (spray-dried dispersion suspension); T4=Test Formulation 4 (encapsulated crystalline tablet)). In each group of Parts A and C, 8 subjects were randomized in a 3:1 ratio to receive Compound IA (6 subjects) or matching placebo (2 subjects).
For Part A, eight cohorts of eight eligible subjects were enrolled. Each subject received a single oral dose of Compound IA (3, 10, 30, 100, 300 mg of crystalline suspension and 100, 300, 600 mg of spray-dried dispersion (SDD) under fasted conditions. As this was a FIH study, two sentinel subjects were dosed first, at least 24 hours before the rest of the cohort was dosed, to assure maximum safety. Part B was skipped because the data from Part A provided for an adequate comparison of crystalline and SDD formulations.
For part C, eligible subjects were enrolled in six different cohorts. […] Subjects were dosed in Part C following review available safety, tolerability and PK data from preceding groups in Part A.
[…] […] Based on these doses, subjects were randomly assigned to 1 of 6 treatment sequences (1 subject per sequence) prepared using Williams design.
In single-dose part, blood samples were collected for determining the concentrations of Compound IA at the following time points relative to dosing on Day 1: at pre-dose and 0.25, 0.5, 0.75, 1, 1.5, 2, 3, 4, 6, 8, 12, 24, 36, and 48 hours post-dose, and at the follow-up visit. In multiple-dose part, relative to dosing on Days 1 and 14, samples were collected at pre-dose and 0.25, 0.5, 0.75, 1, 1.5, 2, 3, 4, 6, 8, and 12 hours post-dose; on Days 2, 4, 7, 9, and 11: at pre-dose; after the last dose on Day 14: at 24 and 36 hours (Day 15), and 48 hours (Day 16) post-dose; and at the follow-up visit.
All data were summarized using descriptive statistics and were listed and summarized in tabular and/or graphical form. Descriptive statistics for all relevant PK parameters included: n, arithmetic mean, standard deviation (SD), coefficient of variation (CV %), minimum, median, maximum, geometric mean, and geometric CV %. For tmax only median, minimum, and maximum are presented. PK parameters were calculated using noncompartmental methods using software Phoenix Version 8.1. Concentrations below the lower limit of quantification (LLOQ) were treated as zero in summary statistics for concentration data only. The linear trapezoidal rule was used for AUC calculation. Regression analysis of the terminal plasma elimination phase for the determination of t1/2 included at least 3 data points after Cmax. Parameters with an adjusted r^2 below 0.80 were flagged but included in the descriptive statistics. The parameters AUC0-inf, % AUCextra, CL/F, and VZ/F with an % AUCextra above 20% were excluded from the descriptive statistics.
In Part A, dose proportionality was explored using a regression power model relating logarithmically (log)-transformed Cmax, AUC0-last, and AUC0-inf to the log-transformed dose level. Point estimates for the intercept and the slope and corresponding 90% confidence intervals (CIs) for the slope were calculated. For Part C, dose proportionality was not explored. In Part D, the relative bioavailability of the Test Formulation (crystalline tablet, SDD and crystalline tablet) versus the Reference Formulation (crystalline suspension), as well as the effect of food, was explored using an analysis of variance (ANOVA) model on the PK data.
For the following treatments, the least-squares geometric mean ratios were presented together with 90% CIs: 100 mg Compound IA tablet fasted over 100 mg Compound IA suspension fasted, and 100 mg Compound IA tablet fed over 100 mg Compound IA tablet fasted.

in vivo = details: cynomolgus monkey
Method: The safety of the treatment period is supported by 13-week GLP toxicology studies in rat and cynomolgus monkey. […] Safety margins for COMPOUND IA dosed at 25 mg b.i.d. based on 13-week GLP toxicology studies: […]

[2] = single dose 100 mg, crystalline suspension

CC(C)(O)c1ncc([S@](N)(=O)=NC(=O)Nc2c3c(cc4c2CCC4)CCC3)s1 [Compound IA, (R)-N′-((1,2,3,5,6,7-hexahydro-s-indacen-4-yl)carbamoyl)-2-(2-hydroxypropan-2-yl) thiazole-5-sulfonimidamide]
increase of AUC, fed (high-fat, high-calorie meal) vs fasted ([1]; 100 mg crystalline tablet): 1.49 fold | increase of Cmax, fed (high-fat, high-calorie meal) vs fasted ([1]; 100 mg crystalline tablet): 2.05 fold | Cmax lower for crystalline tablet than suspension ([1]; 100 mg, fasted): 78% | multiple dose PK ([1]; after 2 weeks, multiple doses and formulations): linear | absorption of crystalline material ([1]; doses≥100 mg): solubility-limited absorption | median lag time ([1]; encapsulated crystalline tablets 25 mg bid): 0.75 h | median lag time ([1]; encapsulated crystalline tablets 50 mg bid): 0.25 h | AUCs of subjects with heterogenous CYP2C9 genotypes versus normal CYP2C9 activity ([1]; human, in vivo): higher | oral clearance relative to human liver blood flow ([1]; human, in vivo, po): ≤ 2% | renal elimination as share of oral dose ([1]; human, in vivo, po): less than 0.8% | half-life ([1]; human, plasma, oral, 100 mg, suspension formulation): 17.7 h | half-life ([1]; human, plasma, oral, across QD and BID dose levels): 9.83 to 16.2 h | Vd/F ([1]; human, plasma, oral, steady state, across QD and BID dose levels, read-out: Vss/F): 12.6 to 23.3 L | Tmax ([1]; human, plasma, po, single oral doses 30-600 mg, fasted): 1.5 to 3 h | Tmax ([1]; human, plasma, po, single oral doses of suspensions, fasted, across dose levels): 0.76 to 3 h | CL renal ([1]; human, oral, Day 1): ~0.0667 mL/min | CL renal ([1]; human, oral, steady state (Day 14)): ~0.133 mL/min | drug accumulation in reaching steady state ([1]; once daily dosing): about 1.2 fold | increase of AUC0-last, fed compared to fasted [1, 2]: 1.49 fold | increase of Cmax, fed compared to fasted [1, 2]: 2.05 fold | dose proportionality of exposure ([1]; SDD suspension 100-600 mg, fasted): dose-proportionally; also recorded: dose-proportional increase | dose proportionality of exposure ([1]; crystalline suspension 3-300 mg, fasted): less than dose-proportional | median tmax ([1]; single oral doses of suspensions, fasted, across dose levels): 0.76 to 3.0 h | CLss/F ([1]; steady state, across QD and BID dose levels): ~1.0 L/h | drug accumulation in reaching steady state ([1]; twice daily dosing): 2 fold | Exposure multiples MONKEY NOAEL based on AUC0-24 h (in vivo): 49 | Exposure multiples MONKEY NOAEL based on Cmax (in vivo): 66 | NOAEL at 13 weeks (in vivo): 150 mg/kg/day | Exposure multiples MONKEY NOAEL based on AUC0-24 h (in vivo; 25 mg): 61 | Exposure multiples MONKEY NOAEL based on Cmax (in vivo; 25 mg): 82
